PubChem BioAssay AID651974 (The Scripps Research Institute Molecular Screening Center, 2013)
Activity calls are given as the source filed them. The rule behind the calls is not given here.

test: compounds lowering VP16-driven luciferase output – cell-based, luminescence, dose response, counter-screen for LRH-1 inverse agonist project, late-stage follow-up (AID 651974); conditions: HEK293 cells transfected with Gal4-VP16 and pGL4.31 luciferase reporter

| SMILES | IC50 |
| --- | --- |
| Cc1ccc(NC(=O)COC(=O)c2cc(=O)c3ccccc3o2)c(Br)c1 | > 35.9 µM (inactive) |
| COc1ccc(CCNC(=O)COC(=O)c2cccn2C)cc1 | > 35.9 µM (inactive) |
| CC(=O)Nc1ccc(NC(=O)CSc2ccc(-c3ccco3)nn2)cc1 | > 35.9 µM (inactive) |
| O=C(CSc1nc(=O)n2cc(Cl)ccc2n1)Nc1ccc2c(c1)OCCO2 | > 35.9 µM (inactive) |
